Laboratory results from the NIST ThermoML archive (doi:10.1016/j.jct.2016.09.010).

Legend:
[1] = xn = mol fraction of the nth substance listed; details: 100 kPa, Liquid; for speed of sound: Frequency=2 MHz, Linear variable-path acoustic interferometer; for mass density: Vibrating tube method
[2] = 100 kPa, Liquid; for speed of sound: Frequency=2 MHz, Linear variable-path acoustic interferometer; for mass density: Vibrating tube method

CCOC(=O)C(C)O (stereo not drawn) [DL-ethyl lactate] + CCNc1ccccc1
[1], x1 = 1
Details	mass density [kg/m3]	speed of sound [m/s]
303.15 K	1022.88	1261.1
308.15 K	1017.39	1243.8
313.15 K	1011.83	1224.8
318.15 K	1006.31	1206.9

CCOC(=O)C(C)O (stereo not drawn) [DL-ethyl lactate] + CNc1ccccc1
[1], x1 = 1
Details	mass density [kg/m3]	speed of sound [m/s]
303.15 K	1022.88	1261.1
308.15 K	1017.39	1243.8
313.15 K	1011.83	1224.8
318.15 K	1006.31	1206.9

CCNc1ccccc1 [N-ethylaminobenzene]
[2]
Details	mass density [kg/m3]	speed of sound [m/s]
303.15 K	952.41	1497
308.15 K	947.69	1481
313.15 K	942.95	1464
318.15 K	938.23	1448

CNc1ccccc1 [N-methylaniline]
[2]
Details	mass density [kg/m3]	speed of sound [m/s]
303.15 K	978.2	1547
308.15 K	973.53	1526.9
313.15 K	969.92	1511
318.15 K	964.9	1491.4

Nc1ccccc1 [aniline]
[2]
Details	mass density [kg/m3]	speed of sound [m/s]
303.15 K	1012.81	1614
308.15 K	1008.91	1595
313.15 K	1004.59	1574.4
318.15 K	1000.21	1554.9

Nc1ccccc1 [aniline] + CCOC(=O)C(C)O
[1], x2 = 0
Details	mass density [kg/m3]	speed of sound [m/s]
303.15 K	1012.81	1614
308.15 K	1008.91	1595
313.15 K	1004.59	1574.4
318.15 K	1000.21	1554.9
